Drawing on the supplement of paper PMC10307832, this text covers relative viability for 1 cell line.

Holding throughout (assay): relative viability (nuclei count vs DMSO), 5 days (fraction); higher = more cells survive
Compound in experiment [1]: C[C@@]1(C(=O)Nc2ccc(F)nc2)CCCN1c1nc(Nc2cc(C3CC3)n[nH]2)c2cccn2n1 + O=C(c1cc(Cc2n[nH]c(=O)c3ccccc23)ccc1F)N1CCN(C(=O)C2CC2)CC1 [Olaparib] (partner 8 µM)
Put shortly: (§1)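 Medians of duplicate plates are given as relative viability. That measure is the nuclei count in treated wells divided by the count in vehicle wells. Counts were taken on 4× images of lung cancer cell lines in 1536-well plates, 5 days after pin-tool dosing the day after seeding with one drug alone or a fixed anchor-drug dose plus five library-drug doses (not always all listed) in √10 steps.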

Compound in experiment [2]: CC1(C)CNc2cc(NC(=O)c3cccnc3NCc3ccncc3)ccc21 [Motesanib] + CCNC(=O)c1noc(-c2cc(C(C)C)c(O)cc2O)c1-c1ccc(CN2CCOCC2)cc1 [Luminespib] (partner 0.01 µM)
Put shortly:
as §1

Compound in experiment [3]: C[C@@]1(C(=O)Nc2ccc(F)nc2)CCCN1c1nc(Nc2cc(C3CC3)n[nH]2)c2cccn2n1 + CC(=O)c1c(C)c2cnc(Nc3ccc(N4CCNCC4)cn3)nc2n(C2CCCC2)c1=O [Palbociclib] (partner 0.5 µM)
Put shortly: as §1

Compound in experiment [4]: C[C@@]1(C(=O)Nc2ccc(F)nc2)CCCN1c1nc(Nc2cc(C3CC3)n[nH]2)c2cccn2n1 + N=C(N)NC(=N)NCCc1ccccc1 [Phenformin] (partner 250 µM)
Put shortly: as §1

Regarding UMC-11, the relative viability in experiment [1] (first compound 0.04 µM) was determined as 0.376; in experiment [1] (first compound 0.1265 µM), 0.316; in experiment [1] (first compound 0.4 µM), 0.336; in experiment [1] (first compound 1.265 µM), 0.426; in experiment [2] (first compound 0.01 µM) it was 0.987; in experiment [2] (first compound 0.03162 µM) it was 1.07. Further, the relative viability in experiment [2] (first compound 0.1 µM) amounted to 0.927; in experiment [2] (first compound 0.3162 µM), 1.12; in experiment [2] (first compound 1 µM) it was 1.17; in experiment [3] (first compound 0.04 µM), 0.31; in experiment [3] (first compound 0.1265 µM), 0.312; in experiment [3] (first compound 0.4 µM), 0.32. The relative viability in experiment [3] (first compound 1.265 µM) was 0.273; in experiment [4] (first compound 0.04 µM), 0.341; in experiment [4] (first compound 0.1265 µM) it was 0.339; in experiment [4] (first compound 0.4 µM), 0.347; in experiment [4] (first compound 1.265 µM), 0.277.
